Results as given in PubChem BioAssay AID248 (DTP/NCI, 2004).
Values joined by “and” are separate entries in the source; they are usually repeats but may differ in a detail not shown here. Equal values may be shown once. Inconclusive results and toxic doses are left out. No stated cut-off is given here; in the data, active means T/C of 150% or more; inactive means T/C below 125%.

System: L1210 leukemia ip in BDF1 mice, survival T/C
Assay: NCI In Vivo Anticancer Drug Screen. Data for tumor model L1210 Leukemia (intraperitoneal) in B6D2F1 (BDF1) mice
Settings: endpoint: mean survival time, higher = longer survival
Summary of the method: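 Tumor was transplanted into mice, which were then dosed with test compound or vehicle alone. Survival was recorded for each group, and the treated figure was expressed relative to the control figure.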

[1] = dose: 100.0 mg/kg/injection, schedule: Q04DX002 (ip), vehicle: Klucel (hydroxypropylcellulose) (HPC)
[2] = dose: 200.0 mg/kg/injection, schedule: Q04DX002 (ip), vehicle: Klucel (hydroxypropylcellulose) (HPC)
[3] = dose: 400.0 mg/kg/injection, schedule: Q04DX002 (ip), vehicle: Klucel (hydroxypropylcellulose) (HPC)
[4] = dose: 100.0 mg/kg/injection, schedule: Q04DX003 (ip), vehicle: saline with Tween-80
[5] = dose: 200.0 mg/kg/injection, schedule: Q04DX003 (ip), vehicle: saline with Tween-80
[6] = dose: 400.0 mg/kg/injection, schedule: Q04DX003 (ip), vehicle: saline with Tween-80
[7] = dose: 100.0 mg/kg/injection, schedule: Q01DX009 (ip), vehicle: Klucel (hydroxypropylcellulose) (HPC)
[8] = dose: 200.0 mg/kg/injection, schedule: Q01DX009 (ip), vehicle: Klucel (hydroxypropylcellulose) (HPC)
[9] = dose: 400.0 mg/kg/injection, schedule: Q01DX009 (ip), vehicle: Klucel (hydroxypropylcellulose) (HPC)
[10] = dose: 100.0 mg/kg/injection, schedule: Q01DX001 (ip), vehicle: saline
[11] = dose: 100.0 mg/kg/injection, schedule: Q04DX003 (ip), vehicle: saline
[12] = dose: 200.0 mg/kg/injection, schedule: Q01DX001 (ip), vehicle: saline
[13] = dose: 400.0 mg/kg/injection, schedule: Q01DX001 (ip), vehicle: saline
[14] = dose: 100.0 mg/kg/injection, schedule: Q04DX003 (ip), vehicle: Klucel (hydroxypropylcellulose) (HPC)
[15] = dose: 100.0 mg/kg/injection, schedule: Q01DX009 (ip), vehicle: saline with Tween-80
[16] = dose: 200.0 mg/kg/injection, schedule: Q01DX009 (ip), vehicle: saline with Tween-80
[17] = dose: 200.0 mg/kg/injection, schedule: Q04DX003 (ip), vehicle: Klucel (hydroxypropylcellulose) (HPC)

Measured: T/C

COc1ccc(Nc2ccc(OC)cc2C(=O)O)cc1
inactive: dose: 75.0 mg/kg/injection, schedule: Q01DX001 (ip), vehicle: saline 102 % of control | dose: 75.0 mg/kg/injection, schedule: Q01DX009 (ip), vehicle: saline 89 % of control | dose: 150.0 mg/kg/injection, schedule: Q01DX001 (ip), vehicle: saline 102 % of control | dose: 150.0 mg/kg/injection, schedule: Q01DX009 (ip), vehicle: saline 104 % of control | dose: 300.0 mg/kg/injection, schedule: Q01DX001 (ip), vehicle: saline 104 % of control | dose: 300.0 mg/kg/injection, schedule: Q01DX009 (ip), vehicle: saline 101 % of control

O=C(NCCCOc1ccccc1)NCCc1ccc(Cl)c(Cl)c1
inactive: dose: 100.0 mg/kg/injection, schedule: Q01DX001 (ip), vehicle: gum acacia 99 % of control | dose: 200.0 mg/kg/injection, schedule: Q01DX001 (ip), vehicle: gum acacia 94 % of control | dose: 400.0 mg/kg/injection, schedule: Q01DX001 (ip), vehicle: gum acacia 91 % of control

COc1ccc(-n2cccc2C(N)=O)cc1OC
inactive: [1] 103 % of control | [2] 100 % of control | [3] 90 % of control

CCOC(=O)/C(C#N)=C/c1cc2c3c(c1)CCCN3CCC2
inactive: dose: 50.0 mg/kg/injection, schedule: Q04DX003 (ip), vehicle: saline with Tween-80 111 % of control | [4] 93 % of control | [5] 93 % of control | [6] 92 % of control

O=C(NCc1ccc(Cl)c(Cl)c1)Nc1ccccc1F
inactive: [7] 101 % of control | [1] 102 % of control | [8] 104 % of control | [2] 105 % of control | [9] 101 % of control | [3] 97 % of control

O=[N+]([O-])/C=C\C(Cl)(Cl)Cl
inactive: dose: 6.25 mg/kg/injection, schedule: Q01DX009 (ip), vehicle: saline with Tween-80 96 % of control | dose: 12.5 mg/kg/injection, schedule: Q01DX009 (ip), vehicle: saline with Tween-80 87 % of control

Cc1ccc(CCC(=O)O)c2ccccc12
inactive: [1] 93 % of control | [2] 87 % of control

COC(=O)C[N+]12CN3CN(CN(C3)C1)C2
inactive: dose: 50.0 mg/kg/injection, schedule: Q01DX001 (ip), vehicle: saline 98 % of control | [10] 100 % of control | [11] 107 % of control | [12] 96 % of control | dose: 200.0 mg/kg/injection, schedule: Q04DX003 (ip), vehicle: saline 107 % of control | [13] 107 % of control | dose: 400.0 mg/kg/injection, schedule: Q04DX003 (ip), vehicle: saline 108 % of control

O=[N+]([O-])c1ccc2n[nH]c(Cl)c2c1
inactive: [10] 95 % of control | [12] 95 % of control | [13] 94 % of control

Nc1cc(N)nc(S(=O)O)n1
inactive: dose: 25.0 mg/kg/injection, schedule: Q04DX003 (ip), vehicle: saline 93 % of control | dose: 44.0 mg/kg/injection, schedule: Q01DX Z (ip), vehicle: saline 119 % of control | dose: 50.0 mg/kg/injection, schedule: Q01DX009 (ip), vehicle: Klucel (hydroxypropylcellulose) (HPC) 95 % of control | dose: 50.0 mg/kg/injection, schedule: Q04DX003 (ip), vehicle: saline 92 % of control | dose: 66.0 mg/kg/injection, schedule: Q01DX Z (ip), vehicle: saline 113 % of control | [7] 95 % of control | dose: 100.0 mg/kg/injection, schedule: Q01DX Z (ip), vehicle: saline 101 % of control | [14] 107 % of control | [11] 101 % of control | [8] 89 % of control

O=C(OCC1OC(n2ccc(=O)nc2[Se])C(OC(=O)c2ccccc2)C1OC(=O)c1ccccc1)c1ccccc1 (stereo not given)
inactive: dose: 100.0 mg/kg/injection, schedule: Q01DX005 (ip), vehicle: saline 89 % of control | dose: 200.0 mg/kg/injection, schedule: Q01DX005 (ip), vehicle: saline 96 % of control

O=C(NCCCCCCNC(=O)NCCN1CCOCC1)NCCN1CCOCC1
inactive: [1] 94 % of control | [2] 105 % of control | [3] 97 % of control

CN(C)C(=O)c1cccc(NCc2ccc3nc(N)nc(N)c3c2)c1
inactive: dose: 50.0 mg/kg/injection, schedule: Q01DX009 (ip), vehicle: saline with Tween-80 93 % of control | [15] 96 % of control and 88 % of control | [4] 97 % of control | [16] 96 % of control | [5] 92 % of control | [6] 92 % of control

COC(=O)C1OC1c1cc(Cl)ccc1OC (stereo not given)
inactive: [10] 102 % of control | [12] 94 % of control | [13] 94 % of control

Nc1cc2ccncc2c2ccccc12
inactive: dose: 50.0 mg/kg/injection, schedule: Q01DX009 (ip), vehicle: saline sonified 98 % of control | dose: 100.0 mg/kg/injection, schedule: Q01DX009 (ip), vehicle: saline sonified 104 % of control | [14] 97 % of control | dose: 200.0 mg/kg/injection, schedule: Q01DX009 (ip), vehicle: saline sonified 106 % of control | [17] 108 % of control

CC1(c2cccs2)NC(=O)NC1=O (stereo not given)
inactive: dose: 100.0 mg/kg/injection, schedule: Q01DX001 (ip), vehicle: carboxymethylcellulose (CMC) 95 % of control | [15] 102 % of control | [4] 105 % of control and 96 % of control | dose: 200.0 mg/kg/injection, schedule: Q01DX001 (ip), vehicle: carboxymethylcellulose (CMC) 101 % of control | [16] 110 % of control | [5] 109 % of control and 96 % of control | dose: 400.0 mg/kg/injection, schedule: Q01DX001 (ip), vehicle: carboxymethylcellulose (CMC) 97 % of control | dose: 400.0 mg/kg/injection, schedule: Q01DX009 (ip), vehicle: saline with Tween-80 109 % of control | [6] 107 % of control and 105 % of control

C#CC1(O)CCCCC1
inactive: [7] 108 % of control | [14] 94 % of control | [8] 97 % of control | [17] 100 % of control | [9] 97 % of control | dose: 400.0 mg/kg/injection, schedule: Q04DX003 (ip), vehicle: Klucel (hydroxypropylcellulose) (HPC) 96 % of control

O=C(c1ccccc1)C(Oc1ccccc1)c1ccccc1 (stereo not given)
inactive: dose: 100.0 mg/kg/injection, schedule: Q04DX002 (ip), vehicle: other 111 % of control | dose: 200.0 mg/kg/injection, schedule: Q04DX002 (ip), vehicle: other 107 % of control | dose: 400.0 mg/kg/injection, schedule: Q04DX002 (ip), vehicle: other 100 % of control

CCOc1ccccc1/C=N\N=C(N/N=C/c1ccccc1OCC)N/N=C/c1ccccc1OCC
inactive: dose: 60.0 mg/kg/injection, schedule: Q01DX Z (oral), vehicle: saline 91 % of control | dose: 120.0 mg/kg/injection, schedule: Q01DX Z (oral), vehicle: saline 100 % of control | dose: 240.0 mg/kg/injection, schedule: Q01DX Z (oral), vehicle: saline 95 % of control | dose: 480.0 mg/kg/injection, schedule: Q01DX Z (oral), vehicle: saline 95 % of control

Fc1ccc(N=C2c3ccccc3-c3ccccc32)cc1
inactive: [4] 93 % of control | [5] 93 % of control | [6] 95 % of control
